Assay [1] deals with Beet Armyworm (Spodoptera exigua) ("BAW"), second instar larvae. Kind of assay: Bioassay on beet armyworm (BAW), 128-well diet tray assay. In kind it is in vivo. Particulars: for pest or weed control at 50 µg/cm2: Spodoptera exigua; for BAW rating: Table ABC, species BAW, C = not tested, D = no activity noticed. The protocol: (§1) Certain molecules disclosed in this document were tested against BAW and CL using procedures described in the following examples. In the reporting of the results, the “BAW & CL Rating Table” was used (See Table Section).
(§2) Trays were covered with a clear self-adhesive cover and held at 25° C., 14:10 light-dark cycle for five to seven days. Percent mortality was recorded for the larvae in each well; activity in the eight wells was then averaged. The results are indicated in the table entitled “Table ABC: Biological Results” (See Table Section).

The test system of assay [2] is Cabbage Looper (Trichoplusia ni) ("CL"), second instar larvae. Kind of assay: Bioassay on cabbage looper (CL), 128-well diet tray assay. The class given is in vivo. The note with it: for pest or weed control at 50 µg/cm2: Trichoplusia ni; for CL rating: Table ABC, species CL, C = not tested, D = no activity noticed. The protocol:
as §1, §2

The mark [3] stands for this setting: read-out: BAW (Biological Results, rating).
Setting [4] is: read-out: CL (Biological Results, rating).

Read-outs that look alike come from different tables or passages of the source.

As for `Cc1ccc(OCCC(F)(F)F)c(N2C(=O)CS/C2=N\C(=O)Nc2ccc(-n3cnc(-c4ccc(OC(F)(F)F)cc4)n3)cc2Cl)c1` [Compound J737, (Z)-1-(2-Chloro-4-(3-(4-(trifluoromethoxy)phenyl)-1H-1,2,4-triazol-1-yl)phenyl)-3-(3-(5-methyl-2-(3,3,3-trifluoropropoxy)phenyl)-4-oxothiazolidin-2-ylidene)urea], the pest or weed control at 50 µg/cm2 in assay [1] (read-out: BAW rating) and in assay [2] (read-out: CL rating) was 50 to 100% throughout.
On to `CCCOCc1ccc(C)cc1N1C(=O)CS/C1=N\C(=O)Nc1ccc(-c2ncn(-c3ccc(S(F)(F)(F)(F)F)cc3)n2)cc1F` [Compound J544], for which the BAW rating result in assay [1] is given as “A (50-100)”. The CL rating result in assay [2] is on record as “A (50-100)”.
For the compound `Cc1ccc(OCCC(F)(F)F)c(N2C(=O)CS/C2=N\C(=O)Nc2ccc(-c3ncn(-c4ccc(OC(F)(F)F)cc4)n3)cc2C#N)c1` [Compound J243, (Z)-1-(2-Cyano-4-(1-(4-(trifluoromethoxy)phenyl)-1H-1,2,4-triazol-3-yl)phenyl)-3-(3-(5-methyl-2-(3,3,3-trifluoropropoxy)phenyl)-4-oxothiazolidin-2-ylidene)urea], the pest or weed control at 50 µg/cm2 in assay [1] (setting [3]) and in assay [2] (setting [4]) was 50 to 100% each time.
As for “(Z)-1-(3-(5-ethoxy-2-((2,2,2-trifluoroethoxy)methyl)phenyl)-4-oxothiazolidin-2-ylidene)-3-(2-methyl-4-(1-(4-(trifluoromethoxy)phenyl))-1H-1,2,4-triazol-3-yl)phenyl)urea [Compound J575]”, the BAW rating result in assay [1] is listed as “A (50-100)”. In assay [2], the CL rating result is recorded as “A (50-100)”.
For `CCCc1ccc(N(C)C)cc1N1C(=O)CS/C1=N\C(=O)Nc1ccc(-c2ncn(-c3ccc(S(=O)(=O)C(F)(F)F)cc3)n2)cc1C` [Compound J374, (Z)-1-(3-(5-(Dimethylamino)-2-propylphenyl)-4-oxothiazolidin-2-ylidene)-3-(2-methyl-4-(1-(4-((trifluoromethyl)sulfonyl)phenyl)-1H-1,2,4-triazol-3-yl)phenyl)urea], the pest or weed control at 50 µg/cm2 in assay [1] (read-out: BAW rating) and in assay [2] (read-out: CL rating) was 50 to 100% in each case.
Consider `CC(C)c1ccc(N(C)C)cc1N1C(=O)CS/C1=N\C(=O)Nc1ccc(-c2cn(-c3ccc(C(F)(F)F)cc3)cn2)cc1` [Compound J515, (Z)-1-(3-(5-(Dimethylamino)-2-isopropylphenyl)-4-oxothiazolidin-2-ylidene)-3-(4-(1-(4-(trifluoromethyl)phenyl)-1H-imidazol-4-yl)phenyl)urea], for which the pest or weed control at 50 µg/cm2 in assay [1] (read-out: BAW rating) and in assay [2] (read-out: CL rating) was 50 to 100% throughout.
Take `Cc1ccc(COCC(F)(F)F)c(N2C(=O)CS/C2=N\C(=O)Nc2ccc(-c3ncn(-c4ccc(C(F)(F)F)cn4)n3)cc2F)c1` [Compound J281, (Z)-1-(2-Fluoro-4-(1-(5-(trifluoromethyl)pyridin-2-yl)-1H-1,2,4-triazol-3-yl)phenyl)-3-(3-(5-methyl-2-((2,2,2-trifluoroethoxy)methyl)phenyl)-4-oxothiazolidin-2-ylidene)urea]: the pest or weed control at 50 µg/cm2 in assay [1] (setting [3]) and in assay [2] (setting [4]) was 50 to 100% each time.
With `COC(C)c1ccc(C)cc1N1C(=O)CS/C1=N\C(=O)Nc1ccc(-c2cn(-c3ccc(C(F)(F)F)cn3)cn2)cc1` (stereo not shown) [Compound J518, (Z)-1-(3-(2-(1-Methoxyethyl)-5-methylphenyl)-4-oxothiazolidin-2-ylidene)-3-(4-(1-(5-(trifluoromethyl)pyridin-2-yl)-1H-imidazol-4-yl)phenyl)urea], the pest or weed control at 50 µg/cm2 in assay [1] (read-out: BAW rating) and in assay [2] (read-out: CL rating) was 50 to 100% each time.
As to `Cc1ccc(OCCC(F)(F)F)c(N2C(=O)CS/C2=N\C(=O)Nc2ccc(-c3ncn(-c4ccc(S(=O)(=O)C(F)(F)F)cc4)n3)cc2C)c1` [Compound J373, (Z)-1-(3-(5-Methyl-2-(3,3,3-trifluoropropoxy)phenyl)-4-oxothiazolidin-2-ylidene)-3-(2-methyl-4-(1-(4-((trifluoromethyl)sulfonyl)phenyl)-1H-1,2,4-triazol-3-yl)phenyl)urea], the pest or weed control at 50 µg/cm2 in assay [1] (read-out: BAW rating) and in assay [2] (read-out: CL rating) was 50 to 100% in each case.
`COCc1ccc(C)cc1N1C(=O)CS/C1=N\C(=O)Nc1ccc(-c2ncn(-c3ccc(OC(F)(F)F)cc3)n2)cc1C` [Compound J67, (Z)-1-(3-(2-(Methoxymethyl)-5-methylphenyl)-4-oxothiazolidin-2-ylidene)-3-(2-methyl-4-(1-(4-(trifluoromethoxy)phenyl)-1H-1,2,4-triazol-3-yl)phenyl)urea]: the pest or weed control at 50 µg/cm2 in assay [1] (setting [3]) and in assay [2] (setting [4]) was 50 to 100% in each case.
On to `Cc1ccc(COCC(F)(F)Cl)c(N2C(=O)CS/C2=N\C(=O)Nc2ccc(-c3ncn(-c4ccc(OC(F)(F)F)cc4)n3)cc2C)c1` [Compound J436], for which the BAW rating result in assay [1] is on record as “A (50-100)”. In assay [2], the CL rating result is “A (50-100)”.
As for `CC(C)c1cc(F)c(N(C)C)cc1N1C(=O)CS/C1=N\C(=O)Nc1ccc(-c2ncn(-c3ccc(C(F)F)cn3)n2)cc1F` [Compound J351], the “BAW (Biological Results, rating)” value in assay [1] (Beet Armyworm (Spodoptera exigua), C = Not Tested) is given as “A (50-100)”. Also, the “CL (Biological Results, rating)” value in assay [2] (Cabbage Looper (Trichoplusia ni), C = Not Tested) was “A (50-100)”.
Turning to `COc1cc(-c2ncn(-c3ccc(OC(F)(F)F)cc3)n2)ccc1NC(=O)/N=C1\SCC(=O)N1c1cc(C)ccc1C(C)OC` (stereo not shown) [Compound J90, (Z)-1-(2-Methoxy-4-(1-(4-(trifluoromethoxy)phenyl)-1H-1,2,4-triazol-3-yl)phenyl)-3-(3-(2-(1-methoxyethyl)-5-methylphenyl)-4-oxothiazolidin-2-ylidene)urea], the pest or weed control at 50 µg/cm2 in assay [1] (setting [3]) and in assay [2] (setting [4]) was 50 to 100% throughout.
In the case of `CCOCc1ccc(C)cc1N1C(=O)CS/C1=N\C(=O)Nc1ccc(-c2ncn(-c3ccc(C(F)(F)F)cn3)n2)cc1F` [Compound J299, (Z)-1-(3-(2-(Ethoxymethyl)-5-methylphenyl)-4-oxothiazolidin-2-ylidene)-3-(2-fluoro-4-(1-(5-(trifluoromethyl)pyridin-2-yl)-1H-1,2,4-triazol-3-yl)phenyl)urea], the pest or weed control at 50 µg/cm2 in assay [1] (setting [3]) and in assay [2] (setting [4]) was 50 to 100% throughout.
Turning to `CCCNc1ccc(C(C)C)c(N2C(=O)CS/C2=N\C(=O)Nc2ccc(-c3ncn(-c4ccc(OC(F)(F)F)cc4)n3)cc2C)c1` [Compound J128, (Z)-1-(3-(2-Isopropyl-5-(propylamino)phenyl)-4-oxothiazolidin-2-ylidene)-3-(2-methyl-4-(1-(4-(trifluoromethoxy)phenyl)-1H-1,2,4-triazol-3-yl)phenyl)urea], the pest or weed control at 50 µg/cm2 in assay [1] (setting [3]) and in assay [2] (setting [4]) was 50 to 100% throughout.
As for `Cc1ccc(C(C)C)c(N2C(=O)CS/C2=N\C(=O)Nc2ccc(-c3cn(-c4ccc(S(F)(F)(F)(F)F)cc4)cn3)cc2C)c1` [Compound J613, (Z)-1-(3-(2-Isopropyl-5-methylphenyl)-4-oxothiazolidin-2-ylidene)-3-(2-methyl-4-(1-(4-(pentafluoro-λ^6-sulfaneyl)phenyl)-1H-imidazol-4-yl)phenyl)urea], the pest or weed control at 50 µg/cm2 in assay [1] (read-out: BAW rating) and in assay [2] (read-out: CL rating) was 50 to 100% throughout.
Take `COc1ccc(C(C)C)c(N2C(=O)CS/C2=N\C(=O)Nc2ccc(-c3ncn(-c4ccc(OC(F)(F)F)cc4)n3)cc2Cl)c1` [Compound J37, (Z)-1-(2-Chloro-4-(1-(4-(trifluoromethoxy)phenyl)-1H-1,2,4-triazol-3-yl)phenyl)-3-(3-(2-isopropyl-5-methoxyphenyl)-4-oxothiazolidin-2-ylidene)urea]: the pest or weed control at 50 µg/cm2 in assay [1] (setting [3]) and in assay [2] (setting [4]) was 50 to 100% throughout.
With `CCOCc1ccc(C)cc1N1C(=O)CS/C1=N\C(=O)Nc1ccc(-c2ncn(-c3cc(C(F)(F)F)cc(C(F)(F)F)c3)n2)cc1F` [Compound J761], in assay [1], the BAW rating entry is reported as “A (50-100)”. The CL rating result in assay [2] was “A (50-100)”.
Regarding `CCOCc1ccc(C)cc1N1C(=O)CS/C1=N\C(=O)Nc1ccc(-c2ncn(-c3ccc(S(F)(F)(F)(F)F)cc3)n2)cc1F` [Compound J445], the BAW rating entry in assay [1] is on record as “A (50-100)”. For the same compound, the CL rating result in assay [2] is recorded as “A (50-100)”.
Regarding `Cc1ccc(C(C)C)c(N2C(=O)CS/C2=N\C(=O)Nc2ccc(-c3ncn(-c4ccc(OC(F)(F)C(F)(F)F)cc4)n3)cc2C)c1` [Compound J24, (Z)-1-(3-(2-Isopropyl-5-methylphenyl)-4-oxothiazolidin-2-ylidene)-3-(2-methyl-4-(1-(4-(perfluoroethoxy)phenyl)-1H-1,2,4-triazol-3-yl)phenyl)urea], the pest or weed control at 50 µg/cm2 in assay [1] (setting [3]) and in assay [2] (setting [4]) was 50 to 100% throughout.
On to `COC(c1ccc(C)cc1N1C(=O)CS/C1=N\C(=O)Nc1ccc(-c2cn(-c3ccc(OC(F)(F)F)cc3)nn2)cc1)C(F)(F)F` (stereo not shown) [Compound J494, (Z)-1-(3-(5-Methyl-2-(2,2,2-trifluoro-1-methoxyethyl)phenyl)-4-oxothiazolidin-2-ylidene)-3-(4-(1-(4-(trifluoromethoxy)phenyl)-1H-1,2,3-triazol-4-yl)phenyl)urea], for which the pest or weed control at 50 µg/cm2 in assay [1] (read-out: BAW rating) and in assay [2] (read-out: CL rating) was 50 to 100% throughout.
Regarding `COc1cc(-c2ncn(-c3ccc(C(F)(F)F)cc3)n2)ccc1NC(=O)/N=C1\SCC(=O)N1c1cc(C)ccc1C(C)C` [Compound J13, (Z)-1-(3-(2-Isopropyl-5-methylphenyl)-4-oxothiazolidin-2-ylidene)-3-(2-methoxy-4-(1-(4-(trifluoromethyl)phenyl)-1H-1,2,4-triazol-3-yl)phenyl)urea], the pest or weed control at 50 µg/cm2 in assay [1] (setting [3]) and in assay [2] (setting [4]) was 50 to 100% throughout.
Turning to `Cc1cccc(N2C(=O)CS/C2=N\C(=O)Nc2ccc(-c3ncn(-c4ccc(OC(F)(F)F)cc4)n3)cc2F)c1COCC(F)(F)F` [Compound J566], in assay [1], the BAW rating entry is given as “A (50-100)”. Moreover, the CL rating entry in assay [2] is recorded as “A (50-100)”.

(Values after US20230077362A1 (CORTEVA AGRISCIENCE LLC, priority 2019, published 2023).)
